Laboratory results taken from patent US10189841B2, “Purinones as ubiquitin-specific protease 1 inhibitors” (Forma Therapeutics, Inc., priority 2015, dated 2019).

Target: USP1 (construct USP1 (I-785, GG670, 671AA)/UAF1 (I-677)-Flag) (Homo sapiens (Human), UniProt O94782, G670A/G671A)
Assay: Ubiquitin-Rhodamine 110 assay for USP1 activity
Type: biochemical
Conditions: USP1/UAF1 25 pM, Ub-Rh110 25 nM, 30 min preincubation
How it was run: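 Two formats with the USP1/UAF1 complex and 25 nM ubiquitin-rhodamine 110 in pH 8.0 Tris buffer with calcium, glutathione and detergent. Single-point screening used 10 µM, 100 pM enzyme and 45 min. Inhibition was set against no-enzyme and DMSO wells.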

Chain of USP1 (construct USP1 (I-785, GG670, 671AA)/UAF1 (I-677)-Flag) (O94782 whole entry G670A/G671A): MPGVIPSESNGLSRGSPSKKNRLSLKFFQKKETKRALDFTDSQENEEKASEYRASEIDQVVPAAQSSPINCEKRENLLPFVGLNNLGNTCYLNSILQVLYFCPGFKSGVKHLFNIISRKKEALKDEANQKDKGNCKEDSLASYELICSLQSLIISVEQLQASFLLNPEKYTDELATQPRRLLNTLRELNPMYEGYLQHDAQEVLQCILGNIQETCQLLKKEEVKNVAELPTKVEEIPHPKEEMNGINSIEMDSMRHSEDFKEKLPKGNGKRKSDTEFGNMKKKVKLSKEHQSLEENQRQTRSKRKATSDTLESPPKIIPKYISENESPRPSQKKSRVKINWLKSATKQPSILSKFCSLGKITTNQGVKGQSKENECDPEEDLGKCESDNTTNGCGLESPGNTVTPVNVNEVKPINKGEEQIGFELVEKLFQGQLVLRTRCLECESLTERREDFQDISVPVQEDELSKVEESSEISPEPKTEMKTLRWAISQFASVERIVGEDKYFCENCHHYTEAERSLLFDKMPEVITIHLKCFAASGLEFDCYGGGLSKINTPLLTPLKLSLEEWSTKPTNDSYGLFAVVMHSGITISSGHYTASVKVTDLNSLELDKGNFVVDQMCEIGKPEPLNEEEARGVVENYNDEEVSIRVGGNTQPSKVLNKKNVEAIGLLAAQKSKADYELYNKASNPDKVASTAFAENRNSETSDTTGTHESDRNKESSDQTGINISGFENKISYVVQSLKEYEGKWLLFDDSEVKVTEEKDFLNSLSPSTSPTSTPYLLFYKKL
Chain of USP1 (construct USP1 (I-785, GG670, 671AA)/UAF1 (I-677)-Flag) (Q8TAF3 whole entry partner): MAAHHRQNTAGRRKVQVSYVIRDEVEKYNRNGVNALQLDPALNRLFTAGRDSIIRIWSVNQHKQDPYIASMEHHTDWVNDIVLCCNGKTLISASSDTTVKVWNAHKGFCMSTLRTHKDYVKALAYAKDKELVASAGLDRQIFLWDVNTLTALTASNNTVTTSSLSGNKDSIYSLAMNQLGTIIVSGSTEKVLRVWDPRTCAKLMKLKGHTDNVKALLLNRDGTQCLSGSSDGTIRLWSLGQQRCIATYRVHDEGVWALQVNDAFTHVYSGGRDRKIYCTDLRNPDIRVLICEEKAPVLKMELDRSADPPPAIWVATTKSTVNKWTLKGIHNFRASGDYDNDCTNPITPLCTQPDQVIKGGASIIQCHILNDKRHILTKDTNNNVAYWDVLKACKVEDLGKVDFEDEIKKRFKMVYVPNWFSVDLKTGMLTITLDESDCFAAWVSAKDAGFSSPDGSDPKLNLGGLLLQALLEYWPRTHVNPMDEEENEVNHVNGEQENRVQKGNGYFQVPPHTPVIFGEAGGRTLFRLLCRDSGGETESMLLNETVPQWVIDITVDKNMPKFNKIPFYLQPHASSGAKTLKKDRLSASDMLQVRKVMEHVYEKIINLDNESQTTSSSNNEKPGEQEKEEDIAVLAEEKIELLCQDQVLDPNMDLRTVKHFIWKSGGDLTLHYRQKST

`Cc1cc(C)n([C@H]2CC[C@H](Cn3c(=O)[nH]c4cnc(-c5ccccc5C(C)C)nc43)CC2)n1` [Compound I-213, 9-(((1r,4r)-4-(3,5-dimethyl-1H-pyrazol-1-yl)cyclohexyl)methyl)-2-(2-isopropylphenyl)-7,9-dihydro-8H-purin-8-one] and `CC(C)c1ccccc1-c1ncc2[nH]c(=O)n(Cc3ccc(-n4cc(C5CCNCC5)cn4)cc3)c2n1` [Compound I-221, 2-(2-isopropylphenyl)-9-(4-(4-(piperidin-4-yl)-1H-pyrazol-1-yl)benzyl)-7,9-dihydro-8H-purin-8-one] fall in the same range of IC50: 200 to 2000 nM for the first, 200 to 2000 nM for the second.

`CC(C)c1ccccc1-c1ncc2[nH]c(=O)n([C@H](C)c3ccc(-c4nc(C(F)(F)F)cn4C)cc3)c2n1` [Compound I-214, (R)-2-(2-isopropylphenyl)-9-(1-(4-(1-methyl-4-(trifluoromethyl)-1H-imidazol-2-yl)phenyl)ethyl)-7,9-dihydro-8H-purin-8-one] and `CC(C)c1ccccc1-c1ncc2[nH]c(=O)n([C@@H](C)c3ccc(-c4nc(C(F)(F)F)cn4C)cc3)c2n1` [Compound I-215, (S)-2-(2-isopropylphenyl)-9-(1-(4-(1-methyl-4-(trifluoromethyl)-1H-imidazol-2-yl)phenyl)ethyl)-7,9-dihydro-8H-purin-8-one] cannot be ordered by IC50: under 50 nM for the first, under 50 nM for the second.

First: CC(C)c1ccccc1-c1ncc2[nH]c(=O)n(Cc3ccc(C4OCC4(C)C)cc3)c2n1 (stereo not shown) [Compound I-216, 9-(4-(3,3-dimethyloxetan-2-yl)benzyl)-2-(2-isopropylphenyl)-7,9-dihydro-8H-purin-8-one]
Second: CC(=O)Nc1ccc(Cn2c(=O)[nH]c3cnc(-c4ccccc4C(C)C)nc32)cc1 [Compound I-218, N-(4-((2-(2-isopropylphenyl)-8-oxo-7,8-dihydro-9H-purin-9-yl)methyl)phenyl)acetamide]
The IC50 of the first is lower: 50 to 200 nM for the first, 200 to 2000 nM for the second. The first is the more potent here.

First: CC(=O)Nc1cccc(Cn2c(=O)[nH]c3cnc(-c4ccccc4C(C)C)nc32)c1 [Compound I-217, N-(3-((2-(2-isopropylphenyl)-8-oxo-7,8-dihydro-9H-purin-9-yl)methyl)phenyl)acetamide]
Second: CC(C)c1ccccc1-c1ncc2[nH]c(=O)n(Cc3ccc(-c4ncc(C(F)(F)F)n4C)cc3)c2n1 [Compound I-219, 2-(2-isopropylphenyl)-9-(4-(1-methyl-5-(trifluoromethyl)-1H-imidazol-2-yl)benzyl)-7,9-dihydro-8H-purin-8-one]
The IC50 of the first is higher: 200 to 2000 nM for the first, under 50 nM for the second.

First: CC(C)c1ccccc1-c1ncc2[nH]c(=O)n(CC3(F)CCN(C(=O)OC(C)(C)C)CC3)c2n1 [Compound I-220, tert-butyl 4-fluoro-4-((2-(2-isopropylphenyl)-8-oxo-7,8-dihydro-9H-purin-9-yl)methyl)piperidine-1-carboxylate]
Second: CC(C)c1ccccc1-c1ncc2[nH]c(=O)n(C3(c4ccc(F)cc4)CC3)c2n1 [Compound I-227, 9-(1-(4-fluorophenyl)cyclopropyl)-2-(2-isopropylphenyl)-7,9-dihydro-8H-purin-8-one]
The IC50 of the first is higher: 50 to 200 nM for the first, under 50 nM for the second.

First: CC(C)c1ccccc1-c1ncc2[nH]c(=O)n(Cc3ccc(-n4ccc(C5CCNC5)n4)cc3)c2n1 (stereo not shown) [Compound I-222, 2-(2-isopropylphenyl)-9-(4-(3-(pyrrolidin-3-yl)-1H-pyrazol-1-yl)benzyl)-7,9-dihydro-8H-purin-8-one]
Second: CC(C)c1ccccc1-c1ncc2[nH]c(=O)n(Cc3ccc(-n4ccc(C5CCCNC5)n4)cc3)c2n1 (stereo not shown) [Compound I-223, 2-(2-isopropylphenyl)-9-(4-(3-(piperidin-3-yl)-1H-pyrazol-1-yl)benzyl)-7,9-dihydro-8H-purin-8-one]
The IC50 of the first is higher: 200 to 2000 nM for the first, 50 to 200 nM for the second. The second is the more potent here.

Compared with `CC(C)c1ccccc1-c1ncc2[nH]c(=O)n(Cc3ccc(-n4ccc([C@@H]5CCCNC5)n4)cc3)c2n1` [Compound I-224, (R)-2-(2-isopropylphenyl)-9-(4-(3-(piperidin-3-yl)-1H-pyrazol-1-yl)benzyl)-7,9-dihydro-8H-purin-8-one], `CC(C)c1ccccc1-c1ncc2[nH]c(=O)n(C3(c4ccc(-n5cccn5)cc4)CC3)c2n1` [Compound I-226, 9-(1-(4-(1H-pyrazol-1-yl)phenyl)cyclopropyl)-2-(2-isopropylphenyl)-7,9-dihydro-8H-purin-8-one] is lower in IC50: 50 to 200 nM for the first, under 50 nM for the second. The second is the more potent here.

`CC(C)c1ccccc1-c1ncc2c(n1)n(Cc1ccc(OCC3CC3)cc1)c(=O)n2C` [Compound I-228, 9-(4-(cyclopropylmethoxy)benzyl)-2-(2-isopropylphenyl)-7-methyl-7,9-dihydro-8H-purin-8-one] and `CC(C)c1ccccc1-c1ncc2c(n1)n(Cc1ccc(OCC3CCOC3)cc1)c(=O)n2C` (stereo not shown) [Compound I-229, 2-(2-isopropylphenyl)-7-methyl-9-(4-((tetrahydrofuran-3-yl)methoxy)benzyl)-7,9-dihydro-8H-purin-8-one] fall in the same range of IC50: 50 to 200 nM for the first, 50 to 200 nM for the second.

First: CC(C)c1ccccc1-c1ncc2c(n1)n(Cc1ccc(OCC3CCCN(C)C3)cc1)c(=O)n2C (stereo not shown) [Compound I-230, 2-(2-isopropylphenyl)-7-methyl-9-(4-((1-methylpiperidin-3-yl)methoxy)benzyl)-7,9-dihydro-8H-purin-8-one]
Second: CC(C)c1ccccc1-c1ncc2c(n1)n(Cc1ccc(OC3CCC3)cc1)c(=O)n2C [Compound I-237, 9-(4-cyclobutoxybenzyl)-2-(2-isopropylphenyl)-7-methyl-7,9-dihydro-8H-purin-8-one]
The IC50 of the first is higher: 200 to 2000 nM for the first, 50 to 200 nM for the second. The second is the more potent here.

Compared with `CC(C)c1ccccc1-c1ncc2c(n1)n(Cc1ccc(OCc3ccccn3)cc1)c(=O)n2C` [Compound I-231, 2-(2-isopropylphenyl)-7-methyl-9-(4-(pyridin-2-ylmethoxy)benzyl)-7,9-dihydro-8H-purin-8-one], `Cc1cc(COc2ccc(Cn3c(=O)n(C)c4cnc(-c5ccccc5C(C)C)nc43)cc2)no1` [Compound I-235, 2-(2-isopropylphenyl)-7-methyl-9-(4-((5-methylisoxazol-3-yl)methoxy)benzyl)-7,9-dihydro-8H-purin-8-one] is higher in IC50: under 50 nM for the first, 200 to 2000 nM for the second. The first is the more potent here.

First: CC(C)c1ccccc1-c1ncc2c(n1)n(Cc1ccc(OCc3cncn3C)cc1)c(=O)n2C [Compound I-232, 2-(2-isopropylphenyl)-7-methyl-9-(4-((1-methyl-1H-imidazol-5-yl)methoxy)benzyl)-7,9-dihydro-8H-purin-8-one]
Second: CC(C)c1ccccc1-c1ncc2c(n1)n(Cc1ccc(OCCN(C)C)cc1)c(=O)n2C [Compound I-233, 9-(4-(2-(dimethylamino)ethoxy)benzyl)-2-(2-isopropylphenyl)-7-methyl-7,9-dihydro-8H-purin-8-one]
The IC50 of the first is higher: 200 to 2000 nM for the first, 50 to 200 nM for the second. The second is the more potent here.

Compared with `CC(C)c1ccccc1-c1ncc2c(n1)n(Cc1ccc(OCCCN(C)C)cc1)c(=O)n2C` [Compound I-234, 9-(4-(3-(dimethylamino)propoxy)benzyl)-2-(2-isopropylphenyl)-7-methyl-7,9-dihydro-8H-purin-8-one], `CCOCCOc1ccc(Cn2c(=O)n(C)c3cnc(-c4ccccc4C(C)C)nc32)cc1` [Compound I-236, 9-(4-(2-ethoxyethoxy)benzyl)-2-(2-isopropylphenyl)-7-methyl-7,9-dihydro-8H-purin-8-one] is lower in IC50: over 2000 nM for the first, under 50 nM for the second.

Molecule `CC(C)c1ccccc1-c1ncc2c(n1)n(Cc1ccc(OC3CCOCC3)cc1)c(=O)n2C` [Compound I-238, 2-(2-isopropylphenyl)-7-methyl-9-(4-((tetrahydro-2H-pyran-4-yl)oxy)benzyl)-7,9-dihydro-8H-purin-8-one] has an IC50 of 200 to 2000 nM.
